In one data set the test system is Human betaherpesvirus 5. Kind of data set: Antiviral activity against HCMV was determined; No inhibition. It counts as functional, organism-based.
The test system of a further data set is MRC5. Nature of the data set: Concentration required for cytotoxicity of MRC5 cell line was determined. It counts as functional, cell-based. Conditions: Homo sapiens.
The test system of data set [1] is Human immunodeficiency virus 1. Kind of data set: Antiviral activity against HIV-1 was determined; No inhibition. Type of data set: functional, organism-based.
The subject of data set [2] is Human alphaherpesvirus 1. Nature of the data set: Compound tested for inhibition of theCPE (Cytopathic effect) of HSV-1 at 12.5 ug/mL. Type of data set: functional, herpes simplex virus. (In general: Damage to the host cells serves as the signal in cytopathic effect assays.)
Data set [3] in a line: Compound tested for toxic activity at 100 ug/mL; Not toxic. It counts as ADME.
Data set [4] deals with Human alphaherpesvirus 1. Kind of data set: Concentration required for suppression of the CPE (Cytopathic effect) of HSV-1. It counts as functional, organism-based. Conditions: herpes simplex virus.

The source made the active and inactive calls. No cut-off for these calls is given here.

A word on the inhibition: it is the change of the read-out against control, counted positive when it falls. As for `Nc1ncnc2c1ncn2CCC(O)CCO` (configuration not stated), the inhibition result (in the data set with Human betaherpesvirus 5; in data set [1]) was “inactive” throughout. In addition, the Concentration in the data set on MRC5 is 25 µg/mL.
With `Nc1nc2c(ncn2CCCCO)c(=O)[nH]1`, the inhibition entry (in the data set on Human betaherpesvirus 5; in data set [1]) was “inactive” each time.
Turning to `Nc1nc(O)c2ncn(CC[C@H](O)CCO)c2n1`, the inhibition result (in the data set with Human betaherpesvirus 5; in data set [1]) was “inactive” each time. Besides, the inhibition at 12.5 µg/mL in the data set with Human alphaherpesvirus 1 [2] was 50%. For the same compound, the Toxicity result in data set [3] is reported as “Non-toxic”. For the same compound, the Concentration with Human alphaherpesvirus 1 [4] is 50 µg/mL.
As for `Cc1cn(CCC(O)CCO)c(=O)[nH]c1=O` (configuration not stated), the inhibition entry (in the data set with Human betaherpesvirus 5; in data set [1]) was “inactive” throughout.
With `Nc1ncnc2c1ncn2C[C@H](O)CO`, the inhibition entry (in the data set on Human betaherpesvirus 5; in data set [1]) was “inactive” throughout.
As to `Nc1ncnc2c1ncn2CCOCP(=O)(O)O`, the inhibition entry (in the data set with Human betaherpesvirus 5; in data set [1]) was “inactive” throughout.
Regarding `Nc1nc2c(ncn2CC[C@@H](O)CO)c(=O)[nH]1`, the inhibition entry (with Human betaherpesvirus 5; in data set [1]) was “inactive” throughout.
`Nc1nc2c(ncn2COCCO)c(=O)[nH]1`: the inhibition result (in the data set with Human betaherpesvirus 5; in data set [1]) was “inactive” each time.
For the compound `Nc1nc(O)c2ncn(CC(CO)CCO)c2n1` (configuration not stated), the inhibition result (in the data set with Human betaherpesvirus 5; in data set [1]) was “inactive” throughout.
For `Nc1ncnc2c1ncn2C=C=CCO`, the inhibition result (in the data set on Human betaherpesvirus 5; in data set [1]) was “inactive” in each case.
On to `Nc1nc2c(ncn2COC(CO)CO)c(=O)[nH]1`, for which the NA entry (in the data set on Human betaherpesvirus 5; in data set [1]) was “inactive” throughout.
Turning to `Nc1ccn(CCC(O)CCO)c(=O)n1` (configuration not stated), the inhibition entry (in the data set with Human betaherpesvirus 5; in data set [1]) was “inactive” throughout.
Consider `Nc1nc(O)c2ncn(CCC(CO)CO)c2n1`, for which the inhibition result (in the data set with Human betaherpesvirus 5; in data set [1]) was “inactive” throughout.
On to `Nc1ncnc2c1ncn2C[C@@H](CO)OCP(=O)(O)O`, for which the inhibition result (with Human betaherpesvirus 5; in data set [1]) was “inactive” in each case.
